Several values for one entry are separate records, joined by “and”; a condition that tells them apart may be missing. Equal entries are not always repeated. Toxic doses and inconclusive results are not listed. How the source made its calls: active means survival T/C of 150% or more; inactive means T/C below 125% in these data.
System: BDF1 mice, B16 melanoma ip, median survival T/C
Assay: NCI In Vivo Anticancer Drug Screen. Data for tumor model B16 Melanoma (intraperitoneal) in B6D2F1 (BDF1) mice
Conditions: endpoint: median survival time, higher = longer survival
Procedure, shortened: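 Read-out: survival or tumor size, given as treated/control ratio. Controls received vehicle only; animals bore transplantable tumors.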

[1] = dose: 50.0 mg/kg/injection, schedule: Q04DX003 (ip), vehicle: saline with Tween-80
[2] = dose: 100.0 mg/kg/injection, schedule: Q04DX003 (ip), vehicle: saline with Tween-80
[3] = dose: 100.0 mg/kg/injection, schedule: Q01DX009 (ip), vehicle: Klucel (hydroxypropylcellulose) (HPC)
[4] = dose: 200.0 mg/kg/injection, schedule: Q01DX009 (ip), vehicle: Klucel (hydroxypropylcellulose) (HPC)
[5] = dose: 50.0 mg/kg/injection, schedule: Q04DX003 (ip), vehicle: saline
[6] = dose: 100.0 mg/kg/injection, schedule: Q04DX003 (ip), vehicle: saline
[7] = dose: 12.5 mg/kg/injection, schedule: Q01DX009 (ip), vehicle: saline with Tween-80
[8] = dose: 25.0 mg/kg/injection, schedule: Q01DX009 (ip), vehicle: saline with Tween-80
[9] = dose: 50.0 mg/kg/injection, schedule: Q01DX009 (ip), vehicle: saline with Tween-80
[10] = dose: 100.0 mg/kg/injection, schedule: Q01DX009 (ip), vehicle: saline with Tween-80
[11] = dose: 200.0 mg/kg/injection, schedule: Q01DX009 (ip), vehicle: saline with Tween-80
[12] = dose: 12.5 mg/kg/injection, schedule: Q01DX009 (ip), vehicle: saline
[13] = dose: 25.0 mg/kg/injection, schedule: Q01DX009 (ip), vehicle: saline
[14] = dose: 50.0 mg/kg/injection, schedule: Q01DX009 (ip), vehicle: saline
[15] = dose: 75.0 mg/kg/injection, schedule: Q01DX009 (ip), vehicle: Klucel (hydroxypropylcellulose) (HPC)
[16] = dose: 150.0 mg/kg/injection, schedule: Q01DX009 (ip), vehicle: Klucel (hydroxypropylcellulose) (HPC)
[17] = dose: 300.0 mg/kg/injection, schedule: Q01DX009 (ip), vehicle: Klucel (hydroxypropylcellulose) (HPC)
[18] = dose: 0.5 mg/kg/injection, schedule: Q01DX009 (ip), vehicle: saline
[19] = dose: 50.0 mg/kg/injection, schedule: Q01DX009 (ip), vehicle: Klucel (hydroxypropylcellulose) (HPC)
[20] = dose: 400.0 mg/kg/injection, schedule: Q01DX009 (ip), vehicle: Klucel (hydroxypropylcellulose) (HPC)

Measured: T/C

C1=CC2C=CC12 (stereo unspecified)
inactive: [1] 91 % of control | [2] 89 % of control

NC(N)=NC1=NC(=O)CS1
inactive: [1] 102 % of control | [3] 93 % of control | [2] 102 % of control | [4] 90 % of control | dose: 200.0 mg/kg/injection, schedule: Q04DX003 (ip), vehicle: saline with Tween-80 100 % of control

CN(C)C1CCN(Cc2ccccc2)CC1
inactive: [5] 100 % of control | [6] 90 % of control | dose: 200.0 mg/kg/injection, schedule: Q04DX003 (ip), vehicle: saline 93 % of control

CC(=N\O)/C(C)=N/O.CC(=N\O)/C(C)=N/O.CCCC1CC[N-]CC1.CCCC1CC[N-]CC1.CCCC1CC[N-]CC1.CCCC1CC[N-]CC1.[Cl-].[Cl-].[Cl][Rh][Cl].[Rh+3]
inactive: dose: 0.19 mg/kg/injection, schedule: Q01DX009 (ip), vehicle: saline 104 % of control | dose: 0.38 mg/kg/injection, schedule: Q01DX009 (ip), vehicle: saline 107 % of control | dose: 0.75 mg/kg/injection, schedule: Q01DX009 (ip), vehicle: saline 104 % of control | dose: 1.5 mg/kg/injection, schedule: Q01DX009 (ip), vehicle: saline 103 % of control | dose: 3.0 mg/kg/injection, schedule: Q01DX009 (ip), vehicle: saline 105 % of control

c1ccc(CCN2CCC(CCc3c[nH]c4ccccc34)CC2)cc1
inactive: [7] 90 % of control | [8] 103 % of control | [9] 94 % of control

[Cl][Hg][c]1ccc2ccccc2c1
inactive: dose: 1.5 mg/kg/injection, schedule: Q01DX009 (ip), vehicle: gum acacia 108 % of control | dose: 3.0 mg/kg/injection, schedule: Q01DX009 (ip), vehicle: gum acacia 95 % of control | dose: 6.0 mg/kg/injection, schedule: Q01DX009 (ip), vehicle: gum acacia 95 % of control | dose: 12.5 mg/kg/injection, schedule: Q01DX009 (ip), vehicle: gum acacia 96 % of control

O=C(Nc1cc(C(F)(F)F)ccc1Cl)c1ccc(Cl)cc1Cl
inactive: [10] 88 % of control | [11] 88 % of control

Nc1cc(S(N)(=O)=O)ccc1SSc1ccc(S(N)(=O)=O)cc1N
inactive: [10] 95 % of control | [11] 93 % of control

O=C(O)CCS(=O)(=O)CCC(=O)O
inactive: [9] 102 % of control | [10] 100 % of control | [11] 102 % of control

COc1ccc2cc1Oc1ccc(cc1)C[C@H]1c3cc(c(OC)cc3CCN1C)Oc1c(OC)c(OC)cc3c1[C@H](C2)N(C)CC3
inactive: dose: 12.5 mg/kg/injection, schedule: Q01DX009 (ip), vehicle: other 109 % of control | [7] 106 % of control and 108 % of control | [12] 97 % of control | dose: 12.5 mg/kg/injection, schedule: Q04DX003 (ip), vehicle: saline 94 % of control | dose: 25.0 mg/kg/injection, schedule: Q01DX009 (ip), vehicle: other 106 % of control | [8] 106 % of control and 115 % of control | [13] 100 % of control | dose: 25.0 mg/kg/injection, schedule: Q04DX003 (ip), vehicle: saline 108 % of control | dose: 50.0 mg/kg/injection, schedule: Q01DX009 (ip), vehicle: other 102 % of control | [9] 94 % of control and 113 % of control | [14] 105 % of control | [5] 97 % of control | [10] 89 % of control and 101 % of control and 109 % of control | [6] 100 % of control

Cc1cc(CN)c(C)cc1CN
inactive: dose: 44.0 mg/kg/injection, schedule: Q01DX009 (ip), vehicle: saline 91 % of control

Cc1cccc(NC(=O)Nc2cccc(Cl)c2)c1C
inactive: dose: 100.0 mg/kg/injection, schedule: Q04DX003 (ip), vehicle: Klucel (hydroxypropylcellulose) (HPC) 107 % of control | dose: 200.0 mg/kg/injection, schedule: Q04DX003 (ip), vehicle: Klucel (hydroxypropylcellulose) (HPC) 100 % of control | dose: 400.0 mg/kg/injection, schedule: Q04DX003 (ip), vehicle: Klucel (hydroxypropylcellulose) (HPC) 103 % of control

Cc1ccc(NC(=O)c2ccccc2Cl)cc1Cl
inactive: [15] 103 % of control | [16] 103 % of control | [17] 100 % of control

C=CCN(CC=C)P(=O)(N1CC1)N1CC1C (stereo unspecified)
inactive: dose: 0.36 mg/kg/injection, schedule: Q01DX009 (ip), vehicle: saline 112 % of control | [18] 110 % of control | dose: 0.83 mg/kg/injection, schedule: Q01DX009 (ip), vehicle: saline 116 % of control | dose: 1.25 mg/kg/injection, schedule: Q01DX009 (ip), vehicle: saline 114 % of control | dose: 1.8 mg/kg/injection, schedule: Q01DX009 (ip), vehicle: saline 99 % of control

CC1(C)OCC(CO)(Nc2nc(N3CC3)nc(N3CC3)n2)CO1
inactive: dose: 0.31 mg/kg/injection, schedule: Q01DX009 (ip), vehicle: saline 105 % of control and 112 % of control

NCC1OC(OC2C(N)CC(N)C(O)C2OC2OC(CO)C(O)C2O)C(N)C(O)C1O (stereo unspecified)
inactive: [12] 93 % of control | [13] 100 % of control | [14] 93 % of control | dose: 100.0 mg/kg/injection, schedule: Q01DX009 (ip), vehicle: saline 96 % of control

CN(C)c1ncnc2c1ncn2C1OC(CO)C(N)C1O (stereo unspecified)
inactive: [13] 111 % of control | [14] 118 % of control

C=C1C(O)C2(O)OCC34C(CC5C(C)=CC(=O)C(O)C5(C)C23)OC(=O)C(OC(=O)C(C)(O)CC)C14 (stereo unspecified)
active: dose: 1.0 mg/kg/injection, schedule: Q01DX009 (ip), vehicle: saline + alcohol 163 % of control
inactive: dose: 0.06 mg/kg/injection, schedule: Q01DX009 (ip), vehicle: saline + alcohol 109 % of control

C[C@]12CC[C@H](OC3OC(CO)C(O)C(O)C3O)C[C@H]1CC[C@@H]1[C@@H]2CC[C@]2(C)[C@@H](C3=CCOC3=O)CC[C@]12O (stereo partly specified)
inactive: [18] 107 % of control | dose: 1.0 mg/kg/injection, schedule: Q01DX009 (ip), vehicle: saline 92 % of control | dose: 2.0 mg/kg/injection, schedule: Q01DX009 (ip), vehicle: saline 105 % of control

Cc1cc(C)c(C(=O)CC(=O)c2cccnc2)c(C)c1
inactive: dose: 100.0 mg/kg/injection, schedule: Q01DX009 (ip), vehicle: saline + Tween-80 + alcohol 98 % of control | dose: 200.0 mg/kg/injection, schedule: Q01DX009 (ip), vehicle: saline + Tween-80 + alcohol 91 % of control

O=c1oc(-c2ccc3c(c2)OCO3)nc2ccccc12
inactive: [19] 98 % of control | [3] 99 % of control | [4] 91 % of control

C[CH2][Pb]([CH2]C)([CH2]C)[n]1cnc2ccccc21
inactive: dose: 0.75 mg/kg/injection, schedule: Q01DX009 (ip), vehicle: Klucel (hydroxypropylcellulose) (HPC) 95 % of control | dose: 1.5 mg/kg/injection, schedule: Q01DX009 (ip), vehicle: Klucel (hydroxypropylcellulose) (HPC) 96 % of control

CCP(=S)(CC)P(=S)(CC)CC
inactive: [19] 101 % of control | [3] 112 % of control | [4] 94 % of control

CC(C)OCCCN=C(N)N
inactive: [12] 105 % of control | [13] 106 % of control | [14] 110 % of control

Cc1ccc(S(=O)(=O)Nc2c([N+](=O)[O-])cc([N+](=O)[O-])c3ccccc23)cc1
inactive: dose: 6.25 mg/kg/injection, schedule: Q01DX009 (ip), vehicle: saline with Tween-80 107 % of control | [7] 100 % of control | [8] 112 % of control

OC(c1ccccc1)(c1c2ccccc2cc2ccccc12)C1CCC1 (stereo unspecified)
inactive: [15] 100 % of control | [16] 102 % of control | [17] 91 % of control

O=C(Nc1cccc([N+](=O)[O-])c1)c1cc2ccccc2cc1O
inactive: [10] 110 % of control | [11] 107 % of control | dose: 400.0 mg/kg/injection, schedule: Q01DX009 (ip), vehicle: saline with Tween-80 105 % of control

CCC/C=C/C(C)C
inactive: [3] 95 % of control | [4] 88 % of control | [20] 95 % of control

CCCCCCCCC(=O)N1CC(C)OC(C)C1 (stereo unspecified)
inactive: [3] 103 % of control | [4] 89 % of control | [20] 94 % of control

CCN(C(=O)Nc1ccc(OC)cc1)c1ccccc1
inactive: [3] 97 % of control | [4] 100 % of control | [20] 88 % of control

O=C(OCOC(=O)c1ccccc1)c1ccccc1
inactive: [3] 120 % of control | [4] 106 % of control | [20] 114 % of control

— PubChem BioAssay AID192 (DTP/NCI, 2004)
